1 compound from patent US20080312331A1, “Method of Treating Dailysis-Induced Hypotension” (SOLAPHARM, INC., priority 2005, published 2008) can be followed below.

This assay can be described thus: Hemodialysis session in a patient with end-stage renal disease who regularly develops hypotension during dialysis (Example 2). Format: in vivo. The protocol: A patient with end-stage renal disease is scheduled for hemodialysis at 11 AM. The patient's resting blood pressure is 130/80 mm Hg. At 10:40 AM the day of the 11 AM hemodialysis, the patient swallows a tablet comprising 16 mg of desglymidodrine (approximately equal in activity to 20 mg of midodrine).
In a subsequent dialysis day, the patient swallows a desglymidodrine 16 mg. tablet 20 minutes before the onset of dialysis. […] Intravenous desglymidodrine is then promptly administered by a nurse by a push infusion at a dose of 8 mg.

SMILES strings stand for the structures. Entries after “also recorded” stand apart in the source; their conditions may differ.

Consider `COc1ccc(OC)c(C(O)CN)c1` (stereo not drawn) [desglymidodrine], for which, where the note is “8 mg intravenous push infusion after hypotension developed one hour into the dialysis session”, the “blood pressure after treatment of intradialytic hypotension” value is reported as “blood pressure normalizes”. For the same compound, where the note is “end-stage renal disease patient, 16 mg tablet swallowed 20 minutes before hemodialysis”, the “adverse symptoms during hemodialysis” value is “no adverse symptoms are exhibited”. Besides, where the note is “end-stage renal disease patient, 16 mg tablet swallowed 20 minutes before onset of hemodialysis”, the “blood pressure during hemodialysis” value is given as “blood pressure stays stable; also recorded: develops hypotension”.
